Article PMC8828861 (Communications Biology, 2022)

Biological target: M. tuberculosis Rho (MtbRho) (Mycobacterium tuberculosis, UniProt P9WHF3, M495L)
Assay type: biochemical

For Nc1ncnc2c1ncn2[C@@H]1O[C@H](COP(=O)(O)OP(=O)(O)OP(=O)(O)O)[C@@H](O)[C@H]1O [ATP], the “TLC NTP hydrolysis assay with poly[rC]” value was “the M495L mutant hydrolyses ATP at a steady-state rate similar to that measured for EcRho”.
